Reference: patent US20030228324A1, “Peptide compositions and methods of producing and using same” (priority 1999, published 2003)
Entries after “also recorded” stand apart in the source; their conditions may differ.

Key:
[1] = tested on: Pseudomonas aeruginosa agarose beads; test: Active intratracheal model, CF mice; format: in vivo; details: 10 days post i.t. challenge
[2] = target: AcPAK(128-144)OH (Pseudomonas aeruginosa, UniProt P02973); format: binding
[3] = tested on: KB7 wild-type; test: Active immunization with peptide, mice, KB7 wild-type challenge; format: in vivo, Pseudomonas aeruginosa; details: immunized animals (FIG. 6)
Description: (§1) A.BY/SnJ mice were actively immunized at week 0 with 40-50 μg of peptide-tetanus toxoid conjugate mixed with 100 μg of Adjuvax as adjuvant in 50 μl of 10 mM PBS at pH 7.2. Control mice were given 50 μ of 10 mM PBS at pH 7.2 containing 100 μg of Adjuvax. […] Each test group and the control group consisted of ten animals. The effectiveness of the vaccine was determined by the survival rate of the test animals up to 48 hours.

[4] = tested on: AcKB7(128-144)OH; test: Competition ELISA, antiserum affinity for KB7 peptide; format: binding, Pseudomonas aeruginosa; details: for cross-reactivity of the antiserum with KB7: antiserum raised to the named peptide
[5] = tested on: AcP1(126-148)OH; test: Competition ELISA, antiserum affinity for P1 peptide; format: binding, Pseudomonas aeruginosa; details: for cross-reactivity of the antiserum with P1: antiserum raised to the named peptide
[6] = tested on: P1 wild-type; test: Active immunization with peptide, mice, P1 wild-type challenge; format: in vivo, Pseudomonas aeruginosa; details: immunized animals (FIGS. 4, 5)
Description: as §1

[7] = target: AcPAO(128-144)OH (Pseudomonas aeruginosa, UniProt P04739); format: binding; details: for cross-reactivity of the antiserum with PAO: antiserum raised to the named peptide
[8] = tested on: Pseudomonas aeruginosa strain PAO; details: in vivo
[9] = tested on: peptide antigen used to raise the antiserum; test: Competition ELISA, antiserum affinity for its own peptide antigen; parameters: species or system Pseudomonas aeruginosa; details: peptide giving 50% inhibition of antibody binding to PAK pilin; read-out: Antigen I50
[10] = tested on: AcPAO(128-144)OH; format: binding, Pseudomonas aeruginosa; details: cross-reactivity of an antiserum: affinity for native PAK over native PAO peptide, 1 = same affinity
[11] = tested on: PAK wild-type; test: Active immunization with peptide, mice, PAK wild-type challenge; format: in vivo, Pseudomonas aeruginosa; details: immunized animals (FIG. 7)
Description: as §1

[12] = fold increase (+) or decrease (−) in affinity compared to antiserum 17-01

Sequence: KCKSDQDPQFIPKGCSK [CS1]
- Colony Forming Units in BAL Fluid ([1]; immunized i.n. & i.p.): 47 CFU (× 10^3)/mL
- White Blood Cell Counts in BAL Fluid, Total Cells ([1]; immunized i.n. & i.p.): 4 (× 10^4)/mL
- Colony Forming Units in BAL Fluid ([1]; immunized i.n.): 0 CFU (× 10^3)/mL
- White Blood Cell Counts in BAL Fluid, Total Cells ([1]; immunized i.n.): 1 (× 10^4)/mL
- Colony Forming Units in BAL Fluid ([1]; immunized i.p.): 5 CFU (× 10^3)/mL
- White Blood Cell Counts in BAL Fluid, Total Cells ([1]; immunized i.p.): 28 (× 10^4)/mL
- cross-reactivity of the antiserum with PAK ([2]; antiserum raised to the named peptide): very high cross-reactivities
- protection after KB7 wild-type challenge [3]: effective in protecting; also recorded: good protection
- cross-reactivity of the antiserum with KB7 [4]: moderate cross-reactivities
- cross-reactivity of the antiserum with P1 [5]: moderate cross-reactivities
- protection after P1 wild-type challenge [6]: effective in protecting; also recorded: high level of protection
- cross-reactivity of the antiserum with PAO [7]: very high cross-reactivities

Sequence: KCKSTQDEMFTPKGCSK [CS4]
- protection after P1 wild-type challenge [6]: good protection

Sequence: KCTSDQDEQFIPKGCSK [PAK, reference compound]
- protection / survival time after PAO wild-type challenge [8]: does not provide protection against PAO challenge
- cross-reactivity of the antiserum with PAO [7]: cross-reactive with the native PAO sequence

Sequence: KCTSDQDPQFIPKGCSK [E135P]
- IC50 ([2]; competition ELISA on PAK pili, read-out: I50 for PAK): 0.41 µM
- PAK A [2, 12]: −2.2
- cross-reactivity of the antiserum with KB7 [4]: not able to effectively bind; also recorded: not cross-reactive
- KB7 A [4, 12]: −1.2
- IC50 ([4]; peptide giving 50% inhibition of antibody binding to PAK pilin, read-out: KB7 I50): 835 µM
- cross-reactivity of the antiserum with P1 [5]: not cross-reactive
- IC50 ([5]; competition ELISA on PAK pili, read-out: I50 for P1): 176 µM
- PI A [5, 12]: +6.9
- IC50 [9]: 0.7 µM
- cross-reactivity of the antiserum with PAO [7]: not able to effectively bind; also recorded: less cross-reactive than native PAK antiserum; also recorded: less cross-reactive to PAO than PAK peptide
- IC50 ([7]; competition ELISA on PAK pili, read-out: I50 for PAO): 4750 µM
- PAO A [7, 12]: −19.7
- KPAK/KPAO [10]: 11,600

Sequence: KCTSTQDPQFIPKGCSK [CS2]
- protection after PAK wild-type challenge [11]: very high level of protection
- protection / survival time after PAO wild-type challenge [8]: complete protection
- protection after P1 wild-type challenge [6]: high level of protection
- cross-reactivity of the antiserum with PAO [7]: enhanced cross-reactivity to PAO

Sequence: KCTSTQDPQFTPKGCSK [CS3]
- protection after P1 wild-type challenge [6]: high level of protection
